Consider four molecules from patent US20040063745A1, “2-amino-4-(pyridin-2-yl)-thiazole derivatives as transforming growth factor beta (tgf-beta) inhibitors” (priority 2001, published 2004).

Molecules are shown by their SMILES.

This assay relates to TAG-β signalling (PAI-1 promoter, HepG2 cells). Nature of the assay: Assay 1: PAI-1 promoter luciferase reporter assay in HepG2 cells exposed to TAG-β. In kind it is cell-based. The following applies: for IC50: Homo sapiens, HepG2. The protocol: The assay was performed in HepG2 cells stably transfected with the PAI-1 promoter (known to be a strong TAG-β responsive promoter) linked to a luciferase (firefly) reporter gene. The compounds were selected on their ability to inhibit luciferase activity in cells exposed to TAG-β. In addition cells were transfected with a second luciferase (Renilla) gene which was not driven by a TAG-β responsive promoter and was used as a toxicity control.
(96 well-)microplates are seeded, using a multidrop apparatus, with the stably transfected cell line at a concentration of 35000 cells per well in 200 μl of serum-containing medium. These plates are placed in a cell incubator.
18 to 24 hours later (Day 2), cell-incubation procedure is launched. Cells are incubated with TAG-β and a candidate compound (TAG-β inhibitor) at concentrations in the range 50 nM to 10 μM (final concentration of DMSO 1%). The final concentration of TAG-β(rhTGFβ-1) used in the test is 1 ng/mL. Cells are incubated with a candidate compound 15-30 mins prior to the addition of TAGβ. The final volume of the test reaction is 150 μl. Each well contains only one candidate compound and its effect on the PAI-1 promoter is monitored.
Columns 11 and 12 are employed as controls. Column 11 contains 8 wells in which the cells are incubated in the presence of TAGβ, without a candidate compound. Column 11 is used to determine the ‘reference TAG-β induced firefly luciferase value’ against which values measured in the test wells (to quantify inhibitory activity) may be compared. In wells A12 to D12, cells are grown in medium without TAG-β. The firefly luciferase values obtained from these positions are representive of the ‘basal firefly luciferase activity’. In wells E12 to H12, cells are incubated in the presence of TAG-β and 500 μM CPO (Cyclopentenone, Sigma), a cell toxic compound.
12 to 18 hours later (day 3), the luciferase quantification procedure is launched. The following reactions are performed using reagents obtained from a Dual Luciferase Assay Kit (Promega). Cells are washed and lysed with the addition of 10 μl of passive lysis buffer (Promega). Following agitation (15 to 30 mins), luciferase activities of the plates are read in a dual-injector luminometer (BMG lumistar). For this purpose, 50 μl of luciferase assay reagent and 50 μl of ‘Stop & Glo’ buffer are injected sequentially to quantify the activities of both luciferases. The mean Luciferase activity value obtained in wells A11 to H11 (Column 11, TAG-β only) is considered to represent 100% and values obtained in wells A12 to D12 (cells in medium alone) gives a basal level (0%). For each of the compounds tested, a concentration response curve is constructed from which an IC50 value can be determined graphically.
On the technique in general: A reporter such as luciferase makes a cellular process visible.

Usually IC50 stands for the concentration needed to halve the response being measured.

For the molecule `Nc1nc(-c2ccccn2)c(-c2ccnc3ccccc23)s1` [Example 1, 4-(Pyridin-2-yl)-5-quinolin-4-yl-1,3-thiazol-2-amine], the IC50 was at most 5 µM.
Regarding `O=C1C=CCC1` [CPO, Cyclopentenone, reference compound], under “500 μM CPO with TAG-β, toxicity control wells E12 to H12”, the “firefly and renilla luciferase activities relative to column 11 (TAG-β only)” value is reported as “around 50%”.
The molecule `Nc1nc(-c2ccccn2)c(-c2ccc3ncccc3n2)s1` [Example 2, 5-([1,5]Naphthyridin-2-yl)4-pyridin-2-yl-1,3-thiazol-2-amine] showed an IC50 of at most 5 µM.
In the case of `Cc1cccc(-c2nc(N)sc2-c2ccc3ncccc3n2)n1` [Example 3, 4-(6-Methyl-pyridin-2-yl)-5-([1,5]naphthyridin-2-yl)-1,3-thiazol-2-amine], the 50% inhibitory concentration (IC50) is at most 5 µM.
